The values that follow come from patent US6964966B2, “Generation triple-targeting, chiral, broad-spectrum antimicrobial 7-substituted piperidino-quinolone carboxylic acid derivatives, their preparation, compositions and use as medicaments” (Wockhardt Limited, priority 2001, dated 2005).

Values after ≈ are worked out from the molar mass of the structure shown. Read-outs that look alike come from different tables or passages of the source. Where only a bound is given, the exact number is not on record here.

Usually MIC stands for the smallest concentration in the dilution series that meets the test's criterion for growth inhibition.

Common to all, as to format: cell-based
Data set [1] deals with Fluoroquinolone Sensitive Strains. The experiment in a line: In-vitro antimicrobial test, MIC by two-fold serial agar dilution (NCCLS): fluoroquinolone sensitive strains (Table 17). The protocol:
(§1) The test method was in accordance with the standard NCCLS protocol (Methods for Dilution Antimicrobial Susceptibility Tests for Bacteria that grow Aerobicially, Approved Standards, M7-A5, Fifth Edition, January 2000).
(§2) The antibacterial activities (minimum inhibitory concentration: MIC, mcg/ml) were determined by using the two-fold serial agar dilution method recommended by NCCLS. The media used for preculture and main culture were Tryptic Soya broth (Difco) and Mueller Hinton medium (Difco), respectively. The Mueller Hinton agar was supplemented with 5% sheep blood for streptococci. Overnight cultures were diluted with buffered saline (pH 7.2) to the final cell density of 5×10^6-10^7 CFU/ml, and each bacterial suspension was applied with a replicator (Denley's multipoint inoculator, UK) onto a series of Mueller-Hinton agar plates containing antibacterial agents at various concentrations. Final inoculum was approximately 10^4 CFU/spot. The plates were incubated for 18 hrs at 37° C. The MIC was defined as the lowest concentration of an antibacterial agent that inhibits the development of visible microbial growth on agar.
On the technique in general: In agar dilution the substance is mixed into plates at graded concentrations.

A further data set has as its system J 744 (mouse macrophage). The experiment in a line: Cytotoxicity test (Alamar blue), J 744 cells (Table 23). The settings on record: minimum drug concentration inhibiting Alamar blue color change; 3 hrs drug exposure, then 96 hrs incubation; J 744 mouse macrophage cells. The protocol:
(§3) Compounds were evaluated for their cytotoxic potential against two […] viz. […] Freshly grown cells were distributed in microtiter plates at a cell density of 10^5-10^6 cells/well and allowed to adhere and form monolayer by incubating the microtiter plate at 37° C. for 24 hrs. […] Following 3 hrs. of drug exposure, cells were washed with D-MEM and incubated further for 96 hrs. Cytotoxic effects of drugs were monitored through daily microscopic observation and by ascertaining the metabolic status through redox indicator Alamar blue. Healthy actively metabolising cells bring about colour change of Alamar blue from blue to pink within an overnight incubation. Cytotoxic drugs inhibit this reaction resulting into blue coloured wells. Minimum drug concentration inhibiting Alamar blue color change i.e. resulting into blue coloured wells for a given drug is considered cytotoxic concentration.
On the technique in general: The colour change of resazurin is a common sign of viable cells or microbes.

In data set [2] the test system is V79 (Chinese Hamster Lung). The experiment in a line: Cytotoxicity test (Alamar blue), V79 cells (Table 23). The settings on record: minimum drug concentration inhibiting Alamar blue color change, 3 hrs drug exposure, then 96 hrs incubation. The protocol:
as §3

Data set [3] relates to Fluoroquinolone-Resistant Strains. Put plainly: In-vitro antimicrobial test, MIC by agar dilution (NCCLS): fluoroquinolone-resistant strains (Table 18). The protocol: as §1, §2
Where [4] appears, read: Streptococcus pneumoniae, ATCC49619, S. pneumoniae ATCC 49619, read-out: MIC, S. pneumoniae ATCC 49619.
Where [5] appears, read: Escherichia coli, ATCC25922, E. coli ATCC 25922, read-out: MIC, E. coli ATCC 25922.
The mark [6] stands for this setting: Staphylococcus aureus, ATCC 25923 / MSSA, MSSA ATCC 25923, read-out: MIC, MSSA ATCC 25923.

As to `Cc1c(N2CCC(N)C(C)(C)C2)c(F)cc2c(=O)c(C(=O)O)cn(C3CC3)c12` (centres unmarked) [Compound 94, 1-Cyclopropyl-6-fluoro-1,4-dihydro 8-methyl-7-(4-amino-3,3-dimethyl-1-piperidinyl)-4-oxo-quinoline-3-carboxylic acid], in data set [1] (setting [4]), the minimum inhibitory concentration (MIC) worked out at 0.05 µg/mL (≈ 0.129 µM).

Turning to `CCc1c(N2CCC(O)C(C)C2)c(F)cc2c(=O)c(C(=O)O)cn(C3CC3)c12` (mixture of isomers) [Compound 100, cis/trans-1-Cyclopropyl-6-fluoro-8-ethyl-7-(4-hydroxy-3-methyl-1-piperidinyl)-1,4-dihydro-4-oxo-quinoline-3-carboxylic acid], in data set [1], the “MIC, E. coli ATCC 25922” value worked out at 0.8 µg/mL; the “MIC, MSSA ATCC 25923” value is 0.1 µg/mL; the “MIC, S. pneumoniae ATCC 49619” value was 0.8 µg/mL.

Consider `COc1c(N2CCC(NC(C)=O)C(C)(C)C2)c(F)c(N)c2c(=O)c(C(=O)O)cn(C3CC3)c12` (centres unmarked) [Compound 61, 5-Amino-1-cyclopropyl-6-fluoro-1,4-dihydro-8-methoxy-7-(4-acetylamino-3,3-dimethyl-1-piperidinyl)-4-oxo-quinoline-3-carboxylic acid], for which the values for the MIC in data set [1] (setting [5]), in data set [1] (setting [6]) and in data set [1] (setting [4]) were 0.4 µg/mL (≈ 0.869 µM), 0.05 µg/mL (≈ 0.109 µM) and 0.2 µg/mL (≈ 0.434 µM), respectively.

`Cc1c(N2CC[C@H](N)[C@H](C)C2)c(F)cc2c(=O)c(C(=O)O)cn(C3CC3)c12` (relative stereo) [Compound 90, cis-1-Cyclopropyl-6-fluoro-1,4-dihydro-8-methyl-7-(4-amino-3-methyl-1-piperidinyl)-4-oxo-quinoline-3-carboxylic acid]: the “Cytotoxic concentration, J 744 Macrophage” value with J 744 (mouse macrophage) turned out to be 1000 µg/mL. In addition, in data set [2], the “Cytotoxic concentration, V 79 CHL” value was 125 µg/mL.

As to `N[C@@H]1[C@H]2CN(c3nc4c(cc3F)c(=O)c(C(=O)O)cn4-c3ccc(F)cc3F)C[C@@H]12` [Trovafloxacin, reference compound], in the data set on J 744 (mouse macrophage), the “Cytotoxic concentration, J 744 Macrophage” value was 500 µg/mL.

As to `Cc1c(N2CC[C@@H](N)[C@H](C)C2)c(F)cc2c(=O)c(C(=O)O)cn(C3CC3)c12` (relative stereo) [Compound 89, trans-1-Cyclopropyl-6-fluoro-1,4-dihydro-8-methyl-7-(4-amino-3-methyl-1-piperidinyl)-4-oxo-quinoline-3-carboxylic acid], the “Cytotoxic concentration, J 744 Macrophage” value in the data set on J 744 (mouse macrophage) worked out at 1000 µg/mL. In data set [2], the “Cytotoxic concentration, V 79 CHL” value came out at 250 µg/mL.

Turning to `Cc1c(N2CC[C@H](N)[C@H](C)C2)c(F)c(N)c2c(=O)c(C(=O)O)cn(C3CC3)c12` (relative stereo) [Compound 111, cis-1-5-Amino-1-cyclopropyl-6-fluoro-1,4-dihydro-8-methyl-7-(4-amino-3-methyl-1-piperidinyl)-4-oxo-quinoline-3-carboxylic acid], in data set [1], the “MIC, E. coli ATCC 25922” value is 1.56 µg/mL (≈ 4.02 µM) and the “MIC, MSSA ATCC 25923” value came out at 0.8 µg/mL (≈ 2.06 µM).

With `CC[C@@H]1CN(c2c(F)cc3c(=O)c(C(=O)O)cn(C4CC4)c3c2C)CC[C@H]1O` (relative stereo) [Compound 88, cis/trans-1-Cyclopropyl-6-fluoro-8-methyl-7-(4-hydroxy-3-ethyl-1-piperidinyl)-1,4-dihydro-4-oxo-quinoline-3-carboxylic acid], in data set [1], the “MIC, E. coli ATCC 25922” value is 0.4 µg/mL (≈ 1.03 µM); the “MIC, MSSA ATCC 25923” value was found to be 0.012 µg/mL (≈ 0.0309 µM); the “MIC, S. pneumoniae ATCC 49619” value turned out to be 0.1 µg/mL (≈ 0.257 µM). Also, in data set [1] (E. faecalis ATCC 29212), the “MIC, E. faecalis ATCC 29212” value worked out at 0.2 µg/mL (≈ 0.515 µM). In addition, in data set [1] (P. aeruginosa 27853), the “MIC, P. aeruginosa 27853” value is 12.5 µg/mL (≈ 32.2 µM). Further, the “MIC, S. sanguis ATCC 10556” value in data set [1] (S. sanguis ATCC 10556 (Viridans Streptococci)) is 0.2 µg/mL (≈ 0.515 µM). Besides, the “MIC, Cipro^R S. mitis 938” value in data set [3] (Cipro^R S. mitis 938) was determined as 3.12 µg/mL (≈ 8.03 µM). Moreover, in data set [3] (Cipro^R S. sanguis 941), the “MIC, Cipro^R S. sanguis 941” value came to 3.12 µg/mL (≈ 8.03 µM). Also, the “MIC, FQ^R S. pneumoniae 718” value in data set [3] (FQ^R S. pneumoniae 718) turned out to be 3.12 µg/mL (≈ 8.03 µM). Further, the “MIC, MRSA 032” value in data set [3] (MRSA 032) came to 0.8 µg/mL (≈ 2.06 µM).

For `Cc1c(N2CCC(O)CC2)c(F)cc2c(=O)c(C(=O)O)cn(C3CC3)c12` [Compound 83, 1-Cyclopropyl-6-fluoro-8-methyl-7-(4-hydroxy-1-piperidinyl)-1,4-dihydro-4-oxo-quinoline-3-carboxylic acid], the results for the MIC in data set [1] (setting [5]) and in data set [1] (setting [6]) were 0.05 µg/mL (≈ 0.139 µM) and 0.1 µg/mL (≈ 0.277 µM), respectively.

Regarding `Cc1c(N2CCC(N)C(C)(C)C2)c(F)cc2c(=O)c(C(=O)O)cn(C3CC3)c12` (racemic) [Compound 91, (±)1-Cyclopropyl-6-fluoro-1,4-dihydro-8-methyl-7-(4-amino-3,3-dimethyl-1-piperidinyl)-4-oxo-quinoline-3-carboxylic acid], the “Cytotoxic concentration, J 744 Macrophage” value with J 744 (mouse macrophage) is 1000 µg/mL. Also, in data set [2], the “Cytotoxic concentration, V 79 CHL” value worked out at 750 µg/mL.

With `CCNC1C(C)CN(c2c(F)cc3c(=O)c(C(=O)O)cn(C4CC4)c3c2OC)CC1C` (centres unmarked) [Compound 39, 1-Cyclopropyl-6-fluoro-1,4-dihydro-8-methoxy-7-(4-ethylamino-3,5-dimethyl-1-piperidinyl)-4-oxo-quinoline-3-carboxylic acid], the MIC is 6.25 µg/mL (≈ 14.5 µM) in data set [1] (setting [5]), 1.56 µg/mL (≈ 3.62 µM) in data set [1] (setting [6]) and over 6.25 µg/mL in data set [1] (setting [4]).

Regarding `Cc1c(N2CCC(N)C(C)(C)C2)c(F)cc2c(=O)c(C(=O)O)cn(C3CC3)c12` (racemic) [Compound 92, (±)-1-Cyclopropyl-6-fluoro-1,4-dihydro-8-methyl-7-(4-amino-3,3-dimethyl-1-piperidinyl)-4-oxo-quinoline-3-carboxylic acid], in data set [1], the “MIC, E. coli ATCC 25922” value is 0.05 µg/mL (≈ 0.129 µM) and the “MIC, MSSA ATCC 25923” value came to 0.025 µg/mL (≈ 0.0645 µM). Moreover, the “Cytotoxic concentration, J 744 Macrophage” value with J 744 (mouse macrophage) is over 1000 µg/mL. In addition, the “Cytotoxic concentration, V 79 CHL” value in data set [2] was over 1000 µg/mL.

Regarding `COc1c(N2CCC(N)C(C)(C)C2)c(F)cc2c(=O)c(C(=O)O)cn(-c3ccc(F)cc3F)c12` (centres unmarked) [Compound 17, 1-(2,4-Difluorophenyl)-6-fluoro-1,4-dihydro-8-methoxy-7-(4-amino-3,3-dimethyl-1-piperidinyl)-4-oxo-quinoline-3-carboxylic acid], the MIC in data set [1] (setting [5]) was 0.4 µg/mL (≈ 0.841 µM); in data set [1] (setting [6]), 0.4 µg/mL (≈ 0.841 µM); in data set [1] (setting [4]), 1.56 µg/mL (≈ 3.28 µM).

On to `COc1c(N2CCC(O)C(C)C2)c(F)c(N)c2c(=O)c(C(=O)O)cn(C3CC3)c12` (centres unmarked) [Compound 116, 5-Amino-1-cyclopropyl-6-fluoro-1,4-dihydro-8-methoxy-7-(4-hydroxy-3-methyl-1-piperidinyl)-4-oxo-quinoline-3-carboxylic acid], for which the MIC in data set [1] (setting [5]) came to 0.4 µg/mL (≈ 0.987 µM); in data set [1] (setting [6]) it was 0.025 µg/mL (≈ 0.0617 µM); in data set [1] (setting [4]), 0.2 µg/mL (≈ 0.493 µM).

In the case of `CCNC1CCN(c2c(F)c(N)c3c(=O)c(C(=O)O)cn(C4CC4)c3c2OC)CC1(C)C` (centres unmarked) [Compound 66, 5-Amino-1-cyclopropyl-6-fluoro-1,4-dihydro-8-methoxy-7-(4-ethylamino-3,3-dimethyl-1-piperidinyl)-4-oxo-quinoline-3-carboxylic acid], the MIC is 0.2 µg/mL (≈ 0.448 µM) in data set [1] (setting [5]), 0.05 µg/mL (≈ 0.112 µM) in data set [1] (setting [6]) and 0.2 µg/mL (≈ 0.448 µM) in data set [1] (setting [4]).

For `COc1c(N2CCC(O)C(C)(C)C2)c(F)c(N)c2c(=O)c(C(=O)O)cn(C3CC3)c12` (centres unmarked) [Compound 125, 5-Amino-1-cyclopropyl-6-fluoro-1,4-dihydro-8-methoxy-7-(4-hydroxy-3,3-dimethyl-1-piperidinyl)-4-oxo-quinoline-3-carboxylic acid], the figures for the MIC in data set [1] (setting [5]), in data set [1] (setting [6]) and in data set [1] (setting [4]) were 1.56 µg/mL (≈ 3.72 µM), 0.025 µg/mL (≈ 0.0596 µM) and 0.4 µg/mL (≈ 0.954 µM), respectively.

Take `COc1c(N2CC(C)C(O)C(C)C2)c(F)c(N)c2c(=O)c(C(=O)O)cn(C3CC3)c12` (centres unmarked) [Compound 127, 5-Amino-1-cyclopropyl-6-fluoro-1,4-dihydro-8-methoxy-7-(4-hydroxy-3,5-dimethyl-1-piperidinyl)-4-oxo-quinoline-3-carboxylic acid]: the MIC in data set [1] (setting [5]) is 0.4 µg/mL (≈ 0.954 µM); in data set [1] (setting [6]) it was under 0.006 µg/mL; in data set [1] (setting [4]), 0.1 µg/mL (≈ 0.238 µM).

Consider `Cc1c(N2CCC(N)C(C)(C)C2)c(F)cc2c(=O)c(C(=O)O)cn(C3CC3)c12` (single isomer, unassigned; (-)) [Compound 93, (−)-1-Cyclopropyl-6-fluoro-1,4-dihydro-8-methyl-7-(4-amino-3,3-dimethyl-1-piperidinyl)-4-oxo-quinoline-3-carboxylic acid], for which the MIC stood at 1.56 µg/mL (≈ 4.03 µM) in data set [1] (Pseudomonas aeruginosa, P. aeruginosa 27853, read-out: MIC, P. aeruginosa 27853); 0.4 µg/mL (≈ 1.03 µM) in data set [3] (Staphylococcus aureus, MRSA, MRSA 032, read-out: MIC, MRSA 032); 0.8 µg/mL (≈ 2.06 µM) in data set [3] (Streptococcus mitis, Cipro^R S. mitis 938, read-out: MIC, Cipro^R S. mitis 938); 0.4 µg/mL (≈ 1.03 µM) in data set [3] (Streptococcus pneumoniae, FQ^R S. pneumoniae 718, read-out: MIC, FQ^R S. pneumoniae 718). In addition, in the data set with J 744 (mouse macrophage), the “Cytotoxic concentration, J 744 Macrophage” value was 1000 µg/mL. In data set [2], the “Cytotoxic concentration, V 79 CHL” value amounted to 250 µg/mL.
